From patent US9938273B2 (Plexxikon Inc., priority 2015, dated 2018)

Target: T1, FLT3-D835Y (Homo sapiens, UniProt P36888, D835Y)
T1 construct: purchased Invitrogen PV3967
T1 sequence (P36888 27-993 D835Y): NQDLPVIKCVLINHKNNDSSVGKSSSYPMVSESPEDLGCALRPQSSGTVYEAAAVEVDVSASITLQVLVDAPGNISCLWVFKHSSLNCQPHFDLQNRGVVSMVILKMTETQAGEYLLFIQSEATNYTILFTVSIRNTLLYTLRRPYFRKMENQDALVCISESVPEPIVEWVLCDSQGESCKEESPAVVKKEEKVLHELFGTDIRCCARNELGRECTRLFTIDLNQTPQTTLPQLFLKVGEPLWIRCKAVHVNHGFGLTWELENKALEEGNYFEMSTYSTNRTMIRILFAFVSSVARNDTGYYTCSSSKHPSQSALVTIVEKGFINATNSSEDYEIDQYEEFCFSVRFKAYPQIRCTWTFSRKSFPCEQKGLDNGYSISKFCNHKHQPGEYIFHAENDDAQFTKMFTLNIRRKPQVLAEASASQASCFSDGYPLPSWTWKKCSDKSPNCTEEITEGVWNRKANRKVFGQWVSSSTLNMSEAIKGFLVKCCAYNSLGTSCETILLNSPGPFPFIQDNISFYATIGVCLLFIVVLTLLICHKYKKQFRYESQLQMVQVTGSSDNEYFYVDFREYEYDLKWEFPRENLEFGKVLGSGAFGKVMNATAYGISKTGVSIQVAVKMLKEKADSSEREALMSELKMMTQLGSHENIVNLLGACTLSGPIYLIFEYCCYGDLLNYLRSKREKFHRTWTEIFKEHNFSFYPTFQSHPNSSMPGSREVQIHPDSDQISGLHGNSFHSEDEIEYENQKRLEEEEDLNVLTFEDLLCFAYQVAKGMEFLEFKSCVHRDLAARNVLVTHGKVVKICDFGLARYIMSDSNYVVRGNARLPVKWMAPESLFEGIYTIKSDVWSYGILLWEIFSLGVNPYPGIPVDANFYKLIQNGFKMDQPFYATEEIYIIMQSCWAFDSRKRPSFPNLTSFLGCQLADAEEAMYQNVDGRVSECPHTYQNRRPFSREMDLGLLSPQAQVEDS
Experiment: AlphaScreen kinase assay with recombinant enzyme, FLT3-D835Y
Type: biochemical
Conditions: 8pt, GMean
Summary of the method: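 Read-out: AlphaScreen proximity signal at 580 nm (680 nm excitation), lost as peptide tyrosine phosphorylation falls. Substrate Biotin-GG(EEEEY)10EE at 30 nM; IC50 runs at 10 μM (FLT3 mutants) or 100 μM (c-KIT) final. Donor beads 20 min, then acceptor beads 60 min, room temperature.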

Structure (SMILES) | IC50 [µM]
CCc1ncc(-c2cc3cc(-c4cccc(C(=O)NC(C)(C)C#N)n4)cnc3[nH]2)cn1 [Compound P-0205, N-(1-cyano-1-methyl-ethyl)-6-[2-(2-ethylpyrimidin-5-yl)-1H-pyrrolo[2,3-b]pyridin-5-yl]pyridine-2-carboxamide] | 0.0001 to 10
CS(=O)(=O)NC1CCN(C(=O)c2cccc(-c3cnc4[nH]c(-c5ccccc5)cc4c3)n2)C1 (stereo not shown) [Compound P-0101, N-[1-[6-(2-phenyl-1H-pyrrolo[2,3-b]pyridin-5-yl)pyridine-2-carbonyl]pyrrolidin-3-yl]methanesulfonamide] | 0.0001 to 10
CC(C)(C#N)NC(=O)c1cccc(-c2cnc3[nH]c(-c4ccc(F)nc4)cc3c2)n1 [Compound P-0208, N-(1-cyano-1-methyl-ethyl)-6-[2-(6-fluoro-3-pyridyl)-1H-pyrrolo[2,3-b]pyridin-5-yl]pyridine-2-carboxamide] | 0.0001 to 10
O=C(c1cccc(-c2cnc3[nH]c(-c4ccccc4)cc3c2)n1)N1CCC(N2CCOCC2)C1 (stereo not shown) [Compound P-0102, (3-morpholinopyrrolidin-1-yl)-[6-(2-phenyl-1H-pyrrolo[2,3-b]pyridin-5-yl)-2-pyridyl]methanone] | 0.0001 to 10
COC1CCN(C(=O)c2cccc(-c3cnc4[nH]c(-c5ccccc5)cc4c3)n2)CC1 [Compound P-0098, (4-methoxy-1-piperidyl)-[6-(2-phenyl-1H-pyrrolo[2,3-b]pyridin-5-yl)-2-pyridyl]methanone] | 0.0001 to 10
CC(C)(C#N)NC(=O)c1cccc(-c2cnc3[nH]c(-c4ccc(N5CCOCC5)nc4)cc3c2)n1 [Compound P-0197, N-(1-cyano-1-methyl-ethyl)-6-[2-(6-morpholino-3-pyridyl)-1H-pyrrolo[2,3-b]pyridin-5-yl]pyridine-2-carboxamide] | 0.0001 to 10
CC(C)(NC(=O)c1cccc(-c2cnc3[nH]c(-c4cnn(C5CCNCC5)c4)cc3c2)n1)C(N)=O [Compound P-0200, N-(2-amino-1,1-dimethyl-2-oxo-ethyl)-6-[2-[1-(4-piperidyl)pyrazol-4-yl]-1H-pyrrolo[2,3-b]pyridin-5-yl]pyridine-2-carboxamide] | 0.0001 to 10
CC(=O)NC1CCN(C(=O)c2n[nH]c3ccc(-c4cnc5[nH]c(-c6ccccc6)cc5c4)cc23)CC1 [Compound P-0021, N-[1-[5-(2-phenyl-1H-pyrrolo[2,3-b]pyridin-5-yl)-1H-indazole-3-carbonyl]-4-piperidyl]acetamide] | 0.0001 to 10
CC(C)(C#N)NC(=O)c1cccc(-c2cnc3[nH]c(-c4ccc(C(F)(F)F)nc4)cc3c2)n1 [Compound P-0201, N-(1-cyano-1-methyl-ethyl)-6-[2-[6-(trifluoromethyl)-3-pyridyl]-1H-pyrrolo[2,3-b]pyridin-5-yl]pyridine-2-carboxamide] | 0.0001 to 10
C#Cc1cc2cc(-c3cccc(S(=O)(=O)NC4CC4)c3)cnc2[nH]1 [Compound P-0004, N-cyclopropyl-3-(2-ethynyl-1H-pyrrolo[2,3-b]pyridin-5-yl)benzenesulfonamide] | 0.0001 to 10
N#CC1CCN(C(=O)c2cccc(-c3cnc4[nH]c(-c5ccc(F)cc5)cc4c3)n2)C1 (stereo not shown) [Compound P-0116, 1-[6-[2-(4-fluorophenyl)-1H-pyrrolo[2,3-b]pyridin-5-yl]pyridine-2-carbonyl]pyrrolidine-3-carbonitrile] | 0.0001 to 10
CCOC(=O)C1CCN(C(=O)c2cccc(-c3cnc4[nH]c(-c5ccccc5)cc4c3)n2)CC1 [Compound P-0025, ethyl 1-[6-(2-phenyl-1H-pyrrolo[2,3-b]pyridin-5-yl)pyridine-2-carbonyl]piperidine-4-carboxylate] | 0.0001 to 10
N[C@H]1CCN(C(=O)c2n[nH]c3ccc(-c4cnc5[nH]c(-c6ccccc6)cc5c4)cc23)C1 [Compound P-0016, [(3S)-3-aminopyrrolidin-1-yl]-[5-(2-phenyl-1H-pyrrolo[2,3-b]pyridin-5-yl)-1H-indazol-3-yl]methanone] | 0.0001 to 10
NC(=O)Nc1ccc(-c2cnc3[nH]c(-c4ccccc4)cc3c2)cc1 [Compound P-0005, [4-(2-phenyl-1H-pyrrolo[2,3-b]pyridin-5-yl)phenyl]urea] | 10 to 50
CN[C@@H]1CCN(C(=O)c2cccc(-c3cnc4[nH]c(-c5ccccc5)cc4c3)n2)C1 [Compound P-0058, [(3R)-3-(methylamino)pyrrolidin-1-yl]-[6-(2-phenyl-1H-pyrrolo[2,3-b]pyridin-5-yl)-2-pyridyl]methanone] | 0.0001 to 10
CC(C)Oc1ncc(-c2cc3cc(-c4cccc(C(=O)NC(C)(C)C#N)n4)cnc3[nH]2)cn1 [Compound P-0191, N-(1-cyano-1-methyl-ethyl)-6-[2-(2-isopropoxypyrimidin-5-yl)-1H-pyrrolo[2,3-b]pyridin-5-yl]pyridine-2-carboxamide] | 0.0001 to 10
CNC1CCN(C(=O)c2cccc(-c3cnc4[nH]c(-c5cn(C)nc5C)cc4c3)n2)C1 (stereo not shown) [Compound P-0049, [6-[2-(1,3-dimethylpyrazol-4-yl)-1H-pyrrolo[2,3-b]pyridin-5-yl]-2-pyridyl]-[3-(methylamino)pyrrolidin-1-yl]methanone] | 0.0001 to 10
CC(C)(C#N)NC(=O)c1cccc(-c2cnc3[nH]c(-c4cnc(N5CCOCC5)nc4)cc3c2)n1 [Compound P-0198, N-(1-cyano-1-methyl-ethyl)-6-[2-(2-morpholinopyrimidin-5-yl)-1H-pyrrolo[2,3-b]pyridin-5-yl]pyridine-2-carboxamide] | 0.0001 to 10
N[C@H]1CCN(C(=O)c2cccc(-c3cnc4[nH]c(-c5ccccc5)cc4c3)n2)C1 [Compound P-0015, [(3S)-3-aminopyrrolidin-1-yl]-[6-(2-phenyl-1H-pyrrolo[2,3-b]pyridin-5-yl)-2-pyridyl]methanone] | 0.0001 to 10
O=S(=O)(NC1CC1)c1cccc(-c2cnc3[nH]c(C#Cc4ccccc4)cc3c2)c1 [Compound P-0014, N-cyclopropyl-3-[2-(2-phenylethynyl)-1H-pyrrolo[2,3-b]pyridin-5-yl]benzenesulfonamide] | 50 to 100
CC(C)(C)OC(=O)NC1CCN(C(=O)c2n[nH]c3ccc(-c4cnc5[nH]c(-c6ccccc6)cc5c4)cc23)CC1 [Compound P-0011, tert-butyl N-[1-[5-(2-phenyl-1H-pyrrolo[2,3-b]pyridin-5-yl)-1H-indazole-3-carbonyl]-4-piperidyl]carbamate] | 0.0001 to 10
CC(C)Oc1ccc(-c2cc3cc(-c4cccc(C(=O)NC(C)(C)C#N)n4)cnc3[nH]2)cn1 [Compound P-0190, N-(1-cyano-1-methyl-ethyl)-6-[2-(6-isopropoxy-3-pyridyl)-1H-pyrrolo[2,3-b]pyridin-5-yl]pyridine-2-carboxamide] | 0.0001 to 10
